From ChEMBL document CHEMBL4507262, “Data for DCP probe A-1596586” (2021)

Legend:
[1] = molecular target: Angiotensin-converting enzyme (Homo sapiens) (UniProt P12821); assay: ACE (h) Eurofins-Cerep enzyme and uptake assay; details: Compound concentration 10.0 uM
[2] = molecular target: MAO-B (amine oxidase [flavin-containing] B) (Homo sapiens, UniProt P27338); assay: MAO-B (h) recombinant enzyme Eurofins-Cerep enzyme and uptake assay; set-up: incubation time 60 min, incubation temperature 37°C, substrate/stimulus/tracer D-Luciferin derivative (4 µM); details: probe D-Luciferin derivative (4 µM), compound concentration 10 uM, read-out: % Inhibition of Control Values (Mean n=2)
[3] = molecular target: Adenosine receptor A1 (Homo sapiens) (UniProt P30542); assay: A1 (h) Eurofins-Cerep binding assay; set-up: ligand concentration 1 nM; details: filed as antagonist, Compound concentration 10.0 uM
[4] = molecular target: T1, Alpha-2B adrenergic receptor (Homo sapiens) (UniProt P18089); assay: Alpha2B (h) Eurofins-Cerep binding assay; set-up: ligand concentration 2.5 nM; details: filed as antagonist, Compound concentration 10.0 uM
T1 sequence (whole entry): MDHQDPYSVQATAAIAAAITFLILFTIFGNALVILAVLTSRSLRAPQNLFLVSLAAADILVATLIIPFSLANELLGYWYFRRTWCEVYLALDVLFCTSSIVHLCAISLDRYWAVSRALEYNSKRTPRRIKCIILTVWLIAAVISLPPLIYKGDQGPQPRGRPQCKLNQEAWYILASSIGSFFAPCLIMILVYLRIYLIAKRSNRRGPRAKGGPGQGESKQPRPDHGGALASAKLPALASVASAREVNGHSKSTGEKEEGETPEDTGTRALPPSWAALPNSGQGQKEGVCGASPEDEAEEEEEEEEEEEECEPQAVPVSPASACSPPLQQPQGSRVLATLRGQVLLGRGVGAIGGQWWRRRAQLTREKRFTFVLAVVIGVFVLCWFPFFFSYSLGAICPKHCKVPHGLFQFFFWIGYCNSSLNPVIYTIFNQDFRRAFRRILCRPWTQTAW

[5] = molecular target: Histamine H1 receptor (Homo sapiens) (UniProt P35367); assay: H1 (h) Eurofins-Cerep binding assay; set-up: ligand concentration 1 nM; details: filed as antagonist, Compound concentration 10.0 uM
[6] = molecular target: P2X receptor (Rattus norvegicus) (UniProt P51579+P49653+P51578+Q64663+P47824+P51577+P49654); assay: P2X Eurofins-Cerep binding assay; type: protein assay; set-up: ligand concentration 3 nM; details: filed as agonist, Compound concentration 10.0 uM
[7] = molecular target: 5-hydroxytryptamine receptor 1B (Homo sapiens) (UniProt P28222); assay: 5-HT1B(h) Eurofins-Cerep binding assay; set-up: ligand concentration 1 nM; details: filed as antagonist, Compound concentration 10.0 uM
[8] = molecular target: Tyrosine-protein kinase ABL2 (Homo sapiens) (UniProt P42684); details: Compound concentration 1000.0 nM
[9] = molecular target: Bone morphogenetic protein receptor type-2 (Homo sapiens) (UniProt Q13873); details: Compound concentration 1000.0 nM
[10] = molecular target: Calcium/calmodulin-dependent protein kinase type 1D (Homo sapiens) (UniProt Q8IU85); details: Compound concentration 1000.0 nM
[11] = molecular target: Calcium/calmodulin-dependent protein kinase type II subunit beta (Homo sapiens) (UniProt Q13554); details: Compound concentration 1000.0 nM
[12] = molecular target: Casein kinase I isoform epsilon (Homo sapiens) (UniProt P49674); details: Compound concentration 1000.0 nM
[13] = molecular target: Casein kinase I isoform gamma-3 (Homo sapiens) (UniProt Q9Y6M4); details: Compound concentration 1000.0 nM
[14] = molecular target: Dual specificity tyrosine-phosphorylation-regulated kinase 1A (Homo sapiens) (UniProt Q13627); details: Compound concentration 1000.0 nM
[15] = tested on: Epidermal growth factor receptor (Homo sapiens), P00533 [L858R]; details: Compound concentration 1000.0 nM
[16] = tested on: Epidermal growth factor receptor (Homo sapiens), P00533 [T790M]; details: Compound concentration 1000.0 nM
[17] = molecular target: Ephrin type-A receptor 4 (Homo sapiens) (UniProt P54764); details: Compound concentration 1000.0 nM
[18] = molecular target: Ephrin type-B receptor 6 (Homo sapiens) (UniProt O15197); details: Compound concentration 1000.0 nM
[19] = molecular target: Receptor tyrosine-protein kinase erbB-3 (Homo sapiens) (UniProt P21860); details: Compound concentration 1000.0 nM
[20] = molecular target: Fibroblast growth factor receptor 1 (Homo sapiens) (UniProt P11362); details: Compound concentration 1000.0 nM
[21] = molecular target: Tyrosine-protein kinase Fgr (Homo sapiens) (UniProt P09769); details: Compound concentration 1000.0 nM
[22] = molecular target: Homeodomain-interacting protein kinase 2 (Homo sapiens) (UniProt Q9H2X6); details: Compound concentration 1000.0 nM
[23] = molecular target: Insulin receptor-related protein (Homo sapiens) (UniProt P14616); details: Compound concentration 1000.0 nM
[24] = molecular target: MAP/microtubule affinity-regulating kinase 3 (Homo sapiens) (UniProt P27448); details: Compound concentration 1000.0 nM
[25] = molecular target: Mitogen-activated protein kinase kinase kinase 10 (Homo sapiens) (UniProt Q02779); details: Compound concentration 1000.0 nM
[26] = molecular target: Serine/threonine-protein kinase PAK 6 (Homo sapiens) (UniProt Q9NQU5); details: Compound concentration 1000.0 nM
[27] = molecular target: Phosphatidylinositol 4,5-bisphosphate 3-kinase catalytic subunit delta isoform (Homo sapiens) (UniProt O00329); details: Compound concentration 1000.0 nM
[28] = molecular target: Protein kinase C eta type (Homo sapiens) (UniProt P24723); details: Compound concentration 1000.0 nM
[29] = molecular target: Receptor-interacting serine/threonine-protein kinase 2 (Homo sapiens) (UniProt O43353); details: Compound concentration 1000.0 nM
[30] = molecular target: Ribosomal protein S6 kinase alpha-4 (Homo sapiens) (UniProt O75676); details: Compound concentration 1000.0 nM
[31] = molecular target: Ribosomal protein S6 kinase alpha-5 (Homo sapiens) (UniProt O75582); details: Compound concentration 1000.0 nM
[32] = molecular target: Serine/threonine-protein kinase SBK1 (Homo sapiens) (UniProt Q52WX2); details: Compound concentration 1000.0 nM
[33] = molecular target: TGF-beta receptor type-2 (Homo sapiens) (UniProt P37173); details: Compound concentration 1000.0 nM
[34] = molecular target: Activated CDC42 kinase 1 (Homo sapiens) (UniProt Q07912); details: Compound concentration 1000.0 nM
[35] = molecular target: Tyrosine-protein kinase receptor TYRO3 (Homo sapiens) (UniProt Q06418); details: Compound concentration 1000.0 nM
[36] = molecular target: Serine/threonine-protein kinase VRK2 (Homo sapiens) (UniProt Q86Y07); details: Compound concentration 1000.0 nM
[37] = molecular target: Serine/threonine-protein kinase 32C (Homo sapiens) (UniProt Q86UX6); details: Compound concentration 1000.0 nM
[38] = molecular target: D(2) dopamine receptor (Homo sapiens) (UniProt P14416); details: Compound concentration 10.0 uM

Adenosine receptor A1 (Homo sapiens), sequence (P30542 whole entry): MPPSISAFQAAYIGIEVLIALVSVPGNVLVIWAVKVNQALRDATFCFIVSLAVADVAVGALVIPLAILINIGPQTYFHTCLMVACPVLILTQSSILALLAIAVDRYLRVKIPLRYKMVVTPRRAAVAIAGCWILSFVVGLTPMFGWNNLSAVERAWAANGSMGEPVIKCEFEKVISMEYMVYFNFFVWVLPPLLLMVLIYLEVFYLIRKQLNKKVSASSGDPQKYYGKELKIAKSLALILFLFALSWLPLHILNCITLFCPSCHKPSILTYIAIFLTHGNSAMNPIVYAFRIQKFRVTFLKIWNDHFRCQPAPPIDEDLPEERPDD
Calcium/calmodulin-dependent protein kinase type 1D (Homo sapiens), sequence (Q8IU85 whole entry, looked up): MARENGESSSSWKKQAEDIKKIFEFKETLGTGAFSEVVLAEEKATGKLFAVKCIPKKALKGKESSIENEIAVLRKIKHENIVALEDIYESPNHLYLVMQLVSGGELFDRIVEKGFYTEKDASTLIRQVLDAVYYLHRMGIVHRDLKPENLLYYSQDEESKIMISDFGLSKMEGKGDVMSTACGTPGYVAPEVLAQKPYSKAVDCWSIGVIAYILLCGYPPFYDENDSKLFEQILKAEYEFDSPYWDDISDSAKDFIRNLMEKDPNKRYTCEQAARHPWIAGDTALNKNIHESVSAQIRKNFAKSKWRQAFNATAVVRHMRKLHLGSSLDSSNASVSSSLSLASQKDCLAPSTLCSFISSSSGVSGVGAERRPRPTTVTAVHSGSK
Casein kinase I isoform epsilon (Homo sapiens), sequence (P49674 whole entry, looked up, canonical isoform): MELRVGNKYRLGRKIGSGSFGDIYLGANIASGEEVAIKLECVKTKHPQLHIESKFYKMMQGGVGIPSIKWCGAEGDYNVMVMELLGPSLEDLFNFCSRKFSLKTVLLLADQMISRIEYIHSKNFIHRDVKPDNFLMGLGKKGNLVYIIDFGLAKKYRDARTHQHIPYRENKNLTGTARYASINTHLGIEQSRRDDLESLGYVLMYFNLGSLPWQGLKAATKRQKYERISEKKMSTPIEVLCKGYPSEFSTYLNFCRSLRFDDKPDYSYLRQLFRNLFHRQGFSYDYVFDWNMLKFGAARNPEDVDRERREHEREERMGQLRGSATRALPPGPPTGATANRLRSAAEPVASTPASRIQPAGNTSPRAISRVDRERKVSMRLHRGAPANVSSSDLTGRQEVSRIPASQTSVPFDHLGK
Phosphatidylinositol 4,5-bisphosphate 3-kinase catalytic subunit delta isoform (Homo sapiens), sequence (O00329 whole entry, canonical isoform): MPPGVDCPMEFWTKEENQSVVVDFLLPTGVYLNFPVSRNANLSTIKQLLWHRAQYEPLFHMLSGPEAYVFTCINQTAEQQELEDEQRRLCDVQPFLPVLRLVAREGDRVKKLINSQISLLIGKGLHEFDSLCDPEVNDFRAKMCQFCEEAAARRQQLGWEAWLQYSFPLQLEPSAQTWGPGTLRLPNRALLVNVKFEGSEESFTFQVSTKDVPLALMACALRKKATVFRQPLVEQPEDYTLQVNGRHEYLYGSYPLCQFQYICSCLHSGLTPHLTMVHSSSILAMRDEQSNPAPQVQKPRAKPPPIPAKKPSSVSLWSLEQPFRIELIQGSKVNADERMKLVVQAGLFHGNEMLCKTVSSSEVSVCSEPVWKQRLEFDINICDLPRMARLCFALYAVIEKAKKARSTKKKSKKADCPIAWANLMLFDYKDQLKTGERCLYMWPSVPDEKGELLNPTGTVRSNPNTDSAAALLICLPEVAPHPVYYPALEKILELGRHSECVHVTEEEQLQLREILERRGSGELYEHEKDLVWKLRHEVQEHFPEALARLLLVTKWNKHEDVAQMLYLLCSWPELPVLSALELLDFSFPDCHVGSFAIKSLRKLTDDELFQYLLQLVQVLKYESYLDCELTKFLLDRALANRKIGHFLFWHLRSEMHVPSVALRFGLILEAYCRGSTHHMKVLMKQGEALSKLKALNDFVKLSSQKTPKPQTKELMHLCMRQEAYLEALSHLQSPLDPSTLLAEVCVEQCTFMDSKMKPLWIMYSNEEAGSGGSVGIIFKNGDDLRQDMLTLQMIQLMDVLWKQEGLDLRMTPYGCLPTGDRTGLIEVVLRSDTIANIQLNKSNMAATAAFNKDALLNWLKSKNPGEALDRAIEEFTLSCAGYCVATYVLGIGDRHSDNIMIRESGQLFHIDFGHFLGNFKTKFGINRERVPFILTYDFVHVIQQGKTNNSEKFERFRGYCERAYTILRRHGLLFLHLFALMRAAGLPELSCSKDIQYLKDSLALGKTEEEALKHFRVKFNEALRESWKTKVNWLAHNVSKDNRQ
Serine/threonine-protein kinase VRK2 (Homo sapiens), sequence (Q86Y07 whole entry): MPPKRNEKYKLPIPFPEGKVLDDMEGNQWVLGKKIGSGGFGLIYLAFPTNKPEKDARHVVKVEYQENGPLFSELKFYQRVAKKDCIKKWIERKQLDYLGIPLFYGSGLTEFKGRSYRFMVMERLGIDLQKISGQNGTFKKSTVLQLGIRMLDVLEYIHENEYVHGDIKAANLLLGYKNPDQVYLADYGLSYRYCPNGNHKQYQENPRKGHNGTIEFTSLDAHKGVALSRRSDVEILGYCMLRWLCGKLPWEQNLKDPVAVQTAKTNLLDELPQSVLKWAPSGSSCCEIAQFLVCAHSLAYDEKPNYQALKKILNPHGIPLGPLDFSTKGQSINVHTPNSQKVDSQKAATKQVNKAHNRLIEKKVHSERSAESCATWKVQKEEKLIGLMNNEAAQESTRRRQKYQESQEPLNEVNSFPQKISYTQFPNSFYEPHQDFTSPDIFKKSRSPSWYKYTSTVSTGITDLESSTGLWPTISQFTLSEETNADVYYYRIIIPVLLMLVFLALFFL
Tyrosine-protein kinase receptor TYRO3 (Homo sapiens), sequence (Q06418 whole entry): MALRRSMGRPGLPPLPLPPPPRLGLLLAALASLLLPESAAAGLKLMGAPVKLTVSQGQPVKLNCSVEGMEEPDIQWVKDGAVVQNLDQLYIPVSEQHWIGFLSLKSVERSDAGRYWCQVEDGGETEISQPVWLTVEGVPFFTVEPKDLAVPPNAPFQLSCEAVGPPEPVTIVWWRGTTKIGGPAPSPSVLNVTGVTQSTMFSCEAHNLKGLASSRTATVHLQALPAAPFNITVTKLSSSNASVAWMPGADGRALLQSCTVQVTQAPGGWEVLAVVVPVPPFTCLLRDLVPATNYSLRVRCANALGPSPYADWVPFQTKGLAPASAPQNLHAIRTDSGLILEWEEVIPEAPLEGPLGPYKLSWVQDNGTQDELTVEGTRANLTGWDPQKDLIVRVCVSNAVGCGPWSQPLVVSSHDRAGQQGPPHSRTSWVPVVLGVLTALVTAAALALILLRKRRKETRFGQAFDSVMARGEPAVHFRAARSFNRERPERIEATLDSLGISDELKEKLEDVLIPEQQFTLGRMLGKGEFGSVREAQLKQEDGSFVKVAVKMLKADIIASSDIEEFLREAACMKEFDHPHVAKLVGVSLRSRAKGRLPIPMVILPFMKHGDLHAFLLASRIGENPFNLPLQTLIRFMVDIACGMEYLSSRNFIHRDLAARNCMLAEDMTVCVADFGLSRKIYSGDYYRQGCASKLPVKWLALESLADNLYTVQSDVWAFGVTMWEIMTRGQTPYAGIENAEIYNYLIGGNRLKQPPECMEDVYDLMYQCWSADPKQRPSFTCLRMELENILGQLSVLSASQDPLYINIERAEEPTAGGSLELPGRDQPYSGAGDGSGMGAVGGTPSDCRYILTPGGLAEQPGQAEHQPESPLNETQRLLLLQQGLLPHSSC
Serine/threonine-protein kinase 32C (Homo sapiens), sequence (Q86UX6 whole entry): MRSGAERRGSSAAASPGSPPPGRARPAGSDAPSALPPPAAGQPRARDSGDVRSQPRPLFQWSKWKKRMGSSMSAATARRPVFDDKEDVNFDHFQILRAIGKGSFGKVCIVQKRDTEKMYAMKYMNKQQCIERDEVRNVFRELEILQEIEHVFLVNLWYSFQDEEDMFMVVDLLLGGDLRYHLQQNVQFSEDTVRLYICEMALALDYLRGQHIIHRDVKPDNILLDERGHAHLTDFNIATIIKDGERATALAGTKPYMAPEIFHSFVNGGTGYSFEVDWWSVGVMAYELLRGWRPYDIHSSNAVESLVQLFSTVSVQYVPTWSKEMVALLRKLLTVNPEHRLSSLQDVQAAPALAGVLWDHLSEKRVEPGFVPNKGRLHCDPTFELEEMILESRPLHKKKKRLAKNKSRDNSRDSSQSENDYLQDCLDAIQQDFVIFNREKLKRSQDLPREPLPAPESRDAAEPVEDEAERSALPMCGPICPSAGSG
Mitogen-activated protein kinase kinase kinase 10 (Homo sapiens), sequence (Q02779 whole entry, looked up): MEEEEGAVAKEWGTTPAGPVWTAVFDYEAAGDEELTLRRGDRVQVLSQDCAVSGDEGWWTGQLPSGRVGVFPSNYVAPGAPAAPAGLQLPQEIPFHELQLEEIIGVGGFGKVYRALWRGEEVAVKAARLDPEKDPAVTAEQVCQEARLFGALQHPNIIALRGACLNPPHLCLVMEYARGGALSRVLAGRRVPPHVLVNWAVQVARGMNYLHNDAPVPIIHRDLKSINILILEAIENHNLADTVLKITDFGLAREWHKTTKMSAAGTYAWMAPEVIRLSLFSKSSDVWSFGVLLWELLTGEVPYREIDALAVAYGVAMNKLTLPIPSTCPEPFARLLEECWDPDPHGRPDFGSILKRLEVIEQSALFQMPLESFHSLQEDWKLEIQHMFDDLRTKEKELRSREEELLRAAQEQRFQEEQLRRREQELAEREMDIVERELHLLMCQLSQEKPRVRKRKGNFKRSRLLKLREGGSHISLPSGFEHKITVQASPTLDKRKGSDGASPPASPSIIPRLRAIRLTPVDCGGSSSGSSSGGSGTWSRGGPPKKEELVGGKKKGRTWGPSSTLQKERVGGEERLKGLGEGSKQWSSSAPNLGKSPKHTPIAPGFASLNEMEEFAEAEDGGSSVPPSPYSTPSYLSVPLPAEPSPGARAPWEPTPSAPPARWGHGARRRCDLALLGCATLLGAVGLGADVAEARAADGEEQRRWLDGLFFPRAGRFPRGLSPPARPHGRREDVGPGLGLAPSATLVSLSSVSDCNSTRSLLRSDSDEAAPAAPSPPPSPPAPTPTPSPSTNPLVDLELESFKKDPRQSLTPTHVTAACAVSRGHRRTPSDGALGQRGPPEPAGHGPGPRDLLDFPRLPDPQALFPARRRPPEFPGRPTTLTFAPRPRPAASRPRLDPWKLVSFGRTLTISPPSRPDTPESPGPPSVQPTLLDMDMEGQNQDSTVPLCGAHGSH

Row | SMILES | % Inhibition of Control Values (Mean n=2) [1] | inhibition at 60 min, 10 µM [2] | % Inhibition of Control Specific Binding (Mean n=2) [3] | % Inhibition of Control Specific Binding (Mean n=2) [4] | % Inhibition of Control Specific Binding (Mean n=2) [5] | % Inhibition of Control Specific Binding (Mean n=2) [6] | % Inhibition of Control Specific Binding (Mean n=2) [7] | residual activity [8] | residual activity [9] | residual activity [10] | residual activity [11] | residual activity [12] | residual activity [13] | residual activity [14] | residual activity [15] | residual activity [16] | residual activity [17] | residual activity [18] | residual activity [19] | residual activity [20] | other results
1 | COc1ccc2c(c1)O[C@@H](c1ccc(OC)c(OC)c1)C[C@H]2NC(=O)C1(c2ccc3c(c2)OC(F)(F)O3)CC1 [A-1596586] | -94% | 11.9% | 14.3% | 63.5% | 6.7% | -21.7% | 2.8% | 89% | 68% | 94% | 69% | 100% | 100% | 80% | 97% | 82% | 100% | 61% | 86% | 90% | residual activity [21]: 94%; residual activity [22]: 96%; residual activity [23]: 100%; residual activity [24]: 100%; residual activity [25]: 100%; residual activity [26]: 79%; residual activity [27]: 97%; residual activity [28]: 96%; residual activity [29]: 94%; residual activity [30]: 94%; residual activity [31]: 100%; residual activity [32]: 94%; residual activity [33]: 87%; residual activity [34]: 100%; residual activity [35]: 97%; residual activity [36]: 67%; residual activity [37]: 100%; inhibition [38]: 2.62%
2 | COc1ccc2c(c1)O[C@H](c1ccc(OC)c(OC)c1)C[C@@H]2NC(=O)C1(c2ccc3c(c2)OC(F)(F)O3)CC1 [A-1596584] | -28.5% | 16.7% | 11.5% | 36.4% | 4.5% | 4.8% | -8.6% | 100% | 92% | 100% | 88% | 100% | 100% | 100% | 100% | 87% | 91% | 85% | 92% | 87% | residual activity [21]: 87%; residual activity [22]: 98%; residual activity [23]: 100%; residual activity [24]: 95%; residual activity [25]: 97%; residual activity [26]: 100%; residual activity [27]: 85%; residual activity [28]: 100%; residual activity [29]: 100%; residual activity [30]: 100%; residual activity [31]: 91%; residual activity [32]: 90%; residual activity [33]: 100%; residual activity [34]: 99%; residual activity [35]: 97%; residual activity [36]: 82%; residual activity [37]: 84%; inhibition [38]: -7.27%
